Laboratory results from patent US20080171716A1, “NUCLEIC ACID MODULATION OF TOLL-LIKE RECEPTOR-MEDIATED IMMUNE STIMULATION” (Protiva Biotherapeutics, Inc., priority 2006, published 2008).

How the values were obtained:
TLR7 [1] = target: T1, TLR7 (Mus musculus, UniProt P58681); test: In vivo cytokine induction by formulated ssRNA in mice; set-up: from tissue; host or cells: whole animal: female Balb/C mice, plasma cytokines; species or system Balb/C mice; conditions: IV
T1 sequence (P58681 27-1050): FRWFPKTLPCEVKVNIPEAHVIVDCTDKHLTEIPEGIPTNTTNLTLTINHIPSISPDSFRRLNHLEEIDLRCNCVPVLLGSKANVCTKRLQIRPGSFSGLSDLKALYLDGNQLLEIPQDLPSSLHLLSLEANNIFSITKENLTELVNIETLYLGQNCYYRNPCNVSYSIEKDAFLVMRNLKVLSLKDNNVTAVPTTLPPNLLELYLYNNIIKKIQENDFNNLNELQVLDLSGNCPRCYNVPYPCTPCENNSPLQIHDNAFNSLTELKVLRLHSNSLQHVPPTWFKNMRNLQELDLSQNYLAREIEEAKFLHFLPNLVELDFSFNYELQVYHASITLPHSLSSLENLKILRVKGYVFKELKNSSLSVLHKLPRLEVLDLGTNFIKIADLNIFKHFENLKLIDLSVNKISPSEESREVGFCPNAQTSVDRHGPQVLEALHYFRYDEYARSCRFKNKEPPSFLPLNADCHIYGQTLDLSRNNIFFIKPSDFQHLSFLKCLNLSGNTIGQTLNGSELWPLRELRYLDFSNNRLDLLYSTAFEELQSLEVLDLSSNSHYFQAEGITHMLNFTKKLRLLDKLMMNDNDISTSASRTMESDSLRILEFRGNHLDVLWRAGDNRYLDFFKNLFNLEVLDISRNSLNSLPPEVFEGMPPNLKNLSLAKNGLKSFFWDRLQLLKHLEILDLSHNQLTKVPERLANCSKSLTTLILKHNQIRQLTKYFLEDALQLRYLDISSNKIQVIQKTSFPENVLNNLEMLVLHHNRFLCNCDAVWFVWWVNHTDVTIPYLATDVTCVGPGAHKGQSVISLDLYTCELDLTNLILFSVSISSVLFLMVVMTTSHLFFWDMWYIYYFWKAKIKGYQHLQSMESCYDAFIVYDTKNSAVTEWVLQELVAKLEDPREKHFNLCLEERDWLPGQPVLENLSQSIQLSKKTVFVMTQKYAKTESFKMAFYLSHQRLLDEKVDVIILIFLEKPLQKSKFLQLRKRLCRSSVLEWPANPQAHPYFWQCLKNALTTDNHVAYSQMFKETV
Description: Cytokine ELISA. All cytokines were quantified using sandwich ELISA kits according to the manufacturer's instructions. These were mouse and human IFN-α (PBL Biomedical; Piscataway, N.J.) and IL-6 (eBioscience; San Diego, Calif.).
In Vivo Cytokine Induction. Animal studies were performed at Protiva Biotherapeutics in accordance with Canadian Council on Animal Care guidelines and following protocol approval by the local Animal Care and Use Committee. Female Balb/C mice were subjected to a two-week quarantine and acclimation period prior to use at six to eight-weeks of age. RNA formulations were administered by standard injection in the lateral tail vein in 0.2 ml PBS. Six hours after injection, blood was collected by cardiac puncture and processed as plasma for cytokine analysis. In experiments studying inhibition of cytokine induction by loxoribine, formulated RNA (100 μg) was administered IV 2 h prior to IV administration of 1 mg loxoribine in PBS. Blood was collected by cardiac puncture 2 h after administration of loxoribine and processed as plasma for cytokine analysis.

TLR7 [2] = target: T1, TLR7; test: Loxoribine-induced IFN-α/IL-6 production in murine Flt3L-derived dendritic cells; assay type: cell-based; set-up: Femurs and tibiae of female Balb/C mice were isolated; endogenous in cells; host or cells: Flt3L-derived dendritic cells cultured from bone marrow of female Balb/C mice; conditions: murine Flt3L DC; 30 μM Lox; 0.2 μM RNA; 24 h
Description: Lipid Encapsulation of RNA and ODN. RNA or ODN were encapsulated in liposomes by a process of spontaneous vesicle formation as described in Judge et al., supra, and Jeffs et al., Pharm. Res., 22:362-372 (2005).
Flt3L-derived dendritic cells (DC) were generated as described in Gilliet et al., J. Exp. Med., 195:953-958 (2002), using 100 ng/ml murine Flt3-ligand (Peprotech) supplemented media. Femurs and tibiae of female Balb/C mice were isolated and rinsed in sterile PBS. The ends of bones were cut and marrow harvested in complete media (RPMI 1640, 10% heat inactivated FBS, 1% penicillin/streptomycin, 2 mM L-glutamine, 1 mM sodium pyruvate, 25 mM HEPES, 50 μM 2-mercaptoethanol). Bone marrow cells were passed through a 70 μm strainer and centrifuged at 1000 rpm for 7 min. and resuspended in complete media supplemented with 100 ng/ml murine Flt3L to 2×10^6 cells/ml. 2 ml of cells were seeded in 6-well plates and 1 ml fresh media was added every two to three days. On day 9 of culture, non-adherent cells were washed in complete media and plated into 96-well plates at concentrations ranging from 0.5 to 2.5×10^5 cells/well. […]
Cytokine ELISA. All cytokines were quantified using sandwich ELISA kits according to the manufacturer's instructions. […]

[3] = 1:1 molar ratio in lipid particles, 40 μg βgal AS RNA, plasma 6 h
[4] = plasma 6 h after administration

Substance: polyUmod21: 2′OMe-uridine homopolymer of 21 nucleotides in length (UUUUUUUUUUUUUUUUUUUUU; all 2'-O-methyl, backbone not given here)
- IFN-α induction by ssRNA agonist when co-formulated (TLR7 [1]; [3]): eliminated measurable
- IL-6 induction by ssRNA agonist when co-formulated (TLR7 [1]; [3]): eliminated measurable
- plasma IFN-α after administration of the formulated RNA alone (TLR7 [1]; [4]): no measurable cytokine response
- plasma IL-6 after administration of the formulated RNA alone (TLR7 [1]; [4]): no measurable cytokine response
- inhibition of Lox-mediated IFN-α induction (TLR7 [2]): 87+/−11%
- inhibition of Lox-mediated IL-6 induction (TLR7 [2]): 69+/−1%
